Measured values: patent EP3383888B9, “NEW PEPTIDES HAVING ANTIMICROBIAL ACTIVITY AND NEW ENZYME CAPABLE OF CONVERTING L-CONFIGURED RESIDUE IN D-CONFIGURED AMINO ACID IN A PEPTIDE” (Institut national de recherche pour l'agriculture, …, priority 2015, dated 2017)
Square brackets hold non-standard residues; d marks the D form. Ends that are not written are not given here. Peptide text beside a SMILES is read from it. d(aIle) = CC[C@H](C)[C@@H](N)C(=O)O

Assays:
B. subtilis [1] = test: Inhibition assay on solid medium (plate growth inhibition); type: cell-based, Bacillus subtilis; details: 200 µg of peptide spotted, 37°C, Fig. 5A
Procedure: An overnight culture of the bacterial strain to be assayed was freshly inoculated to sterile BHI liquid medium. After 4 hours of bacterial growth at 37°C, the medium was diluted to 1/1000 and inoculated into a soft agarose medium pre-heated at 42°C. The agarose medium containing bacteria was overlaid on a previously jellified sterile BHI agarose layer. 200 µg of peptide was spotted onto the plate and bacterial growth proceeded at 37°C.

B. subtilis [2] = test: Inhibition assay on liquid medium (OD at 600 nm); type: cell-based, Bacillus subtilis; details: for Growth of B. subtilis in liquid LB medium (bacterial growth inhibition): Fig. 5B, Fig. 8a
Procedure: (§1) An overnight culture of the bacterial strain to be assayed was freshly inoculated to sterile LB liquid medium. After 4 hours of bacterial growth at 37°C, the medium was diluted to 1/10,000 and inoculated into sterile liquid LB or BHI medium. Peptide solution was added (1/100) to a final concentration ranging from 0.01 to 100µM and OD at 600 nm was recorded continuously using a Tecan microplate reader (Infinite® 200 PRO series).

Streptococcus agalactiae = test: Inhibition assay on liquid medium (OD at 600 nm); type: cell-based; details: peptide at 100µM; Fig. 12
Procedure: as §1

Row | Compound | Plate growth inhibition assay of B. subtilis (B. subtilis [1]) | Growth of B. subtilis in liquid LB medium (bacterial growth inhibition) (B. subtilis [2]; liquid LB medium) | Growth of B. subtilis in liquid LB medium (bacterial growth inhibition) (B. subtilis [2]; liquid LB medium, listed as epimerized peptide) | Growth of B. subtilis after addition of peptide at mid-exponential phase (cell density) (B. subtilis [2]; liquid LB medium, peptide added after 3 hours of growth, Fig. 9) | Growth of Streptococcus agalactiae in liquid BHI medium (Streptococcus agalactiae) | potency relative to the YydF18-49DD peptide (B. subtilis [2]; B. subtilis growth ratio, Fig. 8b&c) [times]
1 | CC[C@H](C)[C@@H](NC(=O)[C@H](Cc1c[nH]c2ccccc12)NC(=O)[C@H](CCCNC(=N)N)NC(=O)[C@H](CC(N)=O)NC(=O)[C@H](CCC(=O)O)NC(=O)[C@H](CCCCN)NC(=O)[C@H](CO)NC(=O)[C@H](CCCCN)NC(=O)[C@H](NC(=O)[C@H](Cc1ccccc1)NC(=O)[C@H](Cc1ccc(O)cc1)NC(=O)[C@H](Cc1c[nH]c2ccccc12)NC(=O)[C@H](CC(C)C)NC(=O)[C@H](CC(=O)O)NC(=O)[C@H](CC(N)=O)NC(=O)[C@@H](NC(=O)[C@H](CCCCN)NC(=O)[C@H](C)NC(=O)[C@H](CC(C)C)NC(=O)[C@H](CCCCN)NC(=O)[C@H](CCC(N)=O)NC(=O)[C@H](CO)NC(=O)[C@H](CCC(=O)O)NC(=O)[C@H](CC(=O)O)NC(=O)[C@H](CC(C)C)NC(=O)[C@H](CC(C)C)NC(=O)CNC(C)=O)C(C)C)C(C)C)C(=O)N[C@@H](CC(C)C)C(=O)NCC(=O)N[C@@H](CO)C(=O)NCC(=O)N[C@@H](Cc1c[nH]cn1)C(=O)O [YydF18-49DD, Ac-GLLDESQKLAKVNDLWYF{d-V}KSKENRW{d-I}LGSGH (SEQ ID No 20)] (Ac-GLLDESQKLAKVNDLWYF[dV]KSKENRW[d(aIle)]LGSGH-OH) | strong inhibition growth | bacterial growth inhibition | strong and persistent inhibition |  |  | 
2 | Ac-GLLDESQKLAKVNDLWYFVKSKENRWILGSGH (SEQ ID No 20) [YydF18-49, truncated form of YydF, residues 18 to 49, no modification (all L-amino acids)] | devoid of activity |  |  | a clear slow down followed by a decrease of the cell density |  | 
3 | WYFVKSQSNRWIVGSGH (SEQ ID No 65) (WYF[dV]KSQSNRW[dI]VGSGH) [Peptide-SP] |  |  |  |  | inhibitors | 
4 | YydF33-49DD: peptide of SEQ ID No 61 with the two epimerized residues D-Val36 and D-Ile44 (WYF[dV]KSKENRW[dI]LGSGH) |  | inhibit bacterial growth |  |  | inhibited | 100
